The results in this text go back to patent US20120329985A1, “Optimal hydolysis conditions of soy protein to produce peptides with lipolysis-stimulating activity and their sequencing and use thereof” (TUNGHAI UNIVERSITY, priority 2011, published 2012).

Data set [1] relates to 3T3-L1 adipocytes. Description: Measurement of the triglyceride residue in 3T3-L1 adipocytes. Type of data set: cell-based. Conditions: 4 ppm fractions and synthetical peptides (FIG. 23). As for the experimental part:
(§1) The precursor cells of 3T3-L1 cell are purchased from Food Industry Research and Development Institute in Taiwan. The purchased precursor cells of 3T3-L1 adipocytes are cultured in 24-wells plate with 1×10^4 cells/well. The cells are cultured with DMEM (Dulbecco's Modified Eagle Medium) containing 10% FBS (Fetal bovine serum) at 37° C. in the incubator with 5% CO2, and refresh cultured medium every two days. While the 3T3-L1 cells are filled within the culture dish, the culture medium is changed to the differentiation medium (DM) for promoting adipocytes differentiation, which is defined as day 0 post-differentiation. The differentiation medium contains 1.74 μM insulin, […] dexamethasone (DEX) and 0.5 mM isobutyl-methylxanthine (IBMX). From day 2 post-differentiation, the culture medium is exchanged to DMEM with 1.74 μM insulin and refreshed every two days until day 8 post-differentiation. On day 8 post-differentiation, the precursor cells would differentiate into mature 3T3-L1 adipocytes.
On day 11, the cultured cells are washed with PBS and lysed by adding lysis buffer. The supernatant of cell lysis is collected after centrifugation at 13000 rpm for 10 minutes. 10 μL supernatant of cell lysis is mixed with 1 ml triglyceride detecting kit (TR213) and incubated at room-temperature for 5 minutes. After the incubation, the triglyceride residue in the adipocytes could be calculated according to absorption excited by 500 nm wavelength and shown in FIG. 6. In FIG. 6, control experiment is the cells without treatment of ISP hydrolysate or any fractions.

Data set [2] relates to gastrointestinal enzymes (pepsin, pancreatin). Description: Resistance of the synthetical peptides in the mimic gastrointestinal environment. Conditions: pepsin 25:1, pH 2.0, 37° C., 4 hours; pancreatin 25:1, 4 hours.
Procedure: (§2) Then adding pepsin with substrate-enzyme ratio at 25:1 and incubating for 4 hours is performed to mimic the environment in stomach. Following the incubation, the solution is neutralized by addition of 2N NaOH and heating some aliquot for 15 minutes to terminate the pepsin activity for freeze storage. The remainder is further incubated with pancreatin with substrate-enzyme ratio at 25:1 for 4 hours to mimic the intestinal environment. After termination of the enzyme activity by heating in boiled water and followed by cooling, the sample is freeze stored for the further analysis.
(§3) After temperature returned, the each frozen sample processed in the mimic gastrointestinal environment is centrifuged at 10,000×g for 40 minutes. After centrifugation, the supernatant is collected and filtrated through 0.22 μm filter, and added into the culture medium for 3T3-L1 adipocytes. On day 11 post-differentiation, the supernatant or cell extract are collected as the methods described in example 3 and example 7 for measuring the glycerol release and triglyceride residue in the adipocytes. The glycerol release and triglyceride residue in the adipocytes are calculated from the absorption excited by 500 and 520 nm wavelength.
For data set [3] the test system is unchanged. To be noted: pH 2.
Procedure: as §2, §3
Data set [4] deals with 3T3-L1 adipocytes. Description: Measurement of the glycerol released from 3T3-L1 adipocytes. Type of data set: cell-based. To be noted: 4 ppm fractions and synthetical peptides (FIG. 22); control basal level 312.3. As for the experimental part: as §1, with “adipocytes. […]” for “adipocytes.”
30 μL of the cultured medium is collected and mixed with detecting kit (GY105) to measure the glycerol release. After reaction at room-temperature for 5 minutes, the absorption excited by 520 nm wavelength is measured by spectrophotometer to calculate the glycerol released from adipocytes.

Like-named read-outs stand apart in the source and are kept apart here. Where a SMILES comes first, the peptide text is derived from it.

As to Ile-Ile-Ile, the “Effect on triglyceride residue versus control” value in data set [1] is “significantly reduce”.

As to `CC(C)C[C@H](NC(=O)[C@H](CC(C)C)NC(=O)[C@@H](N)CC(C)C)C(=O)O` [Leu-Leu-Leu] (H-Leu-Leu-Leu-OH; N-terminus and C-terminus assumed), the “Bioactivity for lipolysis after gastrointestinal enzymes” value in data set [2] is listed as “resistant”.

Regarding `CC(C)[C@H](N)C(=O)N[C@@H](Cc1c[nH]cn1)C(=O)N[C@H](C(=O)N[C@H](C(=O)O)C(C)C)C(C)C` [Val-His-Val-Val] (H-VHVV-OH; N-terminus and C-terminus assumed), in data set [3], the “Bioactivity for lipolysis after gastrointestinal enzymes” value was “resistant”.

As to Ile-Leu-Leu, the Glycerol release in data set [4] stood at 540.81 nmol/mg protein. The “Effect on triglyceride residue versus control” value in data set [1] was “significantly reduce”. Also, the Triglyceride residue in data set [1] (control 3.2) came to 1.41 μmol/mg protein.
